Results taken from patent US12357695B2, “Peptides and nanoparticles for intracellular delivery of molecules” (AADIGEN, LLC, priority 2019, dated 2025).
Entries after “also recorded” stand apart in the source; their conditions may differ. Square brackets hold non-standard residues; d marks the D form. Ends that are not written are not given here. Stearyl = stearyl group covalently linked to the N-terminus; Aun = NCCCCCCCCCCC(=O)O; βAla = NCCC(=O)O

Tests used:
mice [1] = experiment: In vivo delivery of Luciferase mRNA, intravenous administration, bioluminescence imaging; settings: 5 μg Luc mRNA; for mRNA / luciferase expression and tissues: single dose
Description: FIGS. 4A-4D show the potency of ADGN-peptide variants for in vivo delivery of Luciferase mRNA via intravenous administration in mice. ADGN-peptide/luc mRNA particles containing 5 μg mRNA were formed in sterile water, and then diluted in 5% sucrose. Mice received IV injection of 100 μl ADGN-peptide/mRNA complexes. mRNA LUC expression was monitored by bioluminescence imaging after 12 h, 24 h, 48 h and 72 h. FIG. 4B show bioluminescence imaging at 24 hr in control and treated groups. Semi-quantitative data of luciferase signal in the liver (C) and in the lung (D) were obtained using the manufacturer's software (Living Image; PerkinElmer). Results were then expressed as values relative to day 0.
(§1) Stable ADGN-peptides/mRNA were evaluated for in vivo delivery of Luciferase mRNA via intravenous and intramuscular administrations. Animals were treated with single dose of 5 moU modified Luc mRNA of 5 μg. 5 moU modified Luc mRNA (5 μg) in sterile water (GIBCO) were mixed with ADGN peptide (sterile water), volume for each sample was adjusted to 100 μl, with sterile water containing 5% Sucrose. Samples were mixed gently with vortex for 1 minute at low speed and incubated for 30 min at room temperature. Samples were filtered on 0.45 μm PES filters prior administration. For IV administration Mice received 100 μl intravenous (IV) injection of either ADGN-106/mRNA, ADGN-100/mRNA, ADGN-106RI/mRNA, ADGN-100-stearyl/mRNA, ADGN-100Hydro1/mRNA, ADGN-100Hydro2 or ADGN/mRNA complexes containing 10% of ADGN-100PEG (3 animals per group). As control, mice from group 3 (2 animals per group) received IV injection of 100 μl of naked 5 moU modified Luc mRNA (5 μg). For IM administration, mice received 25 μl (5 μg mRNA) IV injection of either ADGN-100/mRNA, ADGN-106/mRNA, ADGN-106RI/mRNA or ADGN/mRNA complexes containing 10% or 20% of ADGN-100PEG (2 animals per group). As control, mice from group 3 (2 animals per group) received IV injection of 25 μl of naked 5 moU modified Luc mRNA (5 μg).
(§2) mRNA Luc expression was monitored by bioluminescence. Bioluminescence imaging was performed after 12, 24, 48 and 72 hrs. Mice received an i.p. injection of 150 μg/g luciferin for noninvasive bioluminescence imaging (IVIS Kinetic; PerkinElmer, Waltham, MA, USA).

mice [2] = experiment: In vivo delivery of pGL4 plasmid DNA, intravenous administration, bioluminescence imaging; settings: 5 μg pGL4 plasmid; for increase of luciferase expression / efficiency relative to ADGN-100: all / different tissues
Description: FIGS. 6A-6C show the potency of ADGN-peptide variants for in vivo delivery of Luciferase expressing plasmid pGL4 via intravenous administration in mice. ADGN-peptide/pGL4 particles containing 5 μg plasmid DNA were formed in sterile water, and then diluted in 5% sucrose. Mice received IV injection of 100 μl ADGN-peptide/plasmid complexes. pGL4 Luciferase expression was monitored by bioluminescence imaging after 12 h, 24h, 48h and 72h. […] Results were then expressed as values relative to day 0.
(§3) Stable ADGN-peptides/pGL4.11 DNA were evaluated for in vivo delivery of Luciferase mRNA via intravenous and intramuscular administrations. Animals were treated with single dose of pGL4.11 plasmid DNA of 5 μg. via IV and 2.5 μg via intramuscular administration.
pGL4.11 DNA plasmid (5 μg) in sterile water (GIBCO) were mixed with ADGN peptide (sterile water), volume for each sample was adjusted to 100 μl, with sterile water containing 5% Sucrose. Samples were mixed gently with vortex for 1 minute at low speed and incubated for 30 min at room temperature. Samples were filtered on 0.45 μm PES filters prior administration. For IV administration Mice received 100 μl IV injection of either ADGN-106/pGL4, ADGN-100/pGL4, ADGN-100RI/pGL4, ADGN-100-stearyl/PGL4, ADGN-100Hydro1/PGL4, ADGN-100Hydro2/PGL4, ADGN100 Hydro6/PGL4 or ADGN/PGL4 complexes containing 10% or 20% of ADGN-100PEG (3 animals per group). As control, mice from group 3 (2 animals per group) received IV injection of 100 μl of naked pGL4 plasmids (5 μg).
(§4) Luciferase expression was monitored by bioluminescence. Bioluminescence imaging was performed after 12, 24, 48 and 72 hrs. Mice received an i.p. injection of 150 μg/g luciferin for noninvasive bioluminescence imaging (IVIS Kinetic; PerkinElmer, Waltham, MA, USA).

mice [3] = experiment: In vivo delivery of pGL4 plasmid DNA, intramuscular administration, bioluminescence imaging; settings: IM, 2.5 μg pGL4 plasmid
Description: FIGS. 7A-7B show the potency of ADGN-peptide variants for in vivo delivery of Luciferase expressing plasmid pGL4 via intramuscular administration in mice. ADGN-peptide/pGL4 luc particles containing 2.5 μg plasmid DNA were formed in sterile water, and then diluted in 5% sucrose. Mice received IV injection of 25 μl ADGN-peptide/pGL4 complexes. Luciferase expression was monitored by bioluminescence imaging after 12 h, 24 h and 48h (A). FIG. 7B show bioluminescence imaging at 24 hr in control and treated groups.
as §3
For IM administration, mice received 25 μl (2.5 μg of pGL4 plasmid) IV injection of either ADGN-100/PGL4, ADGN-106/PGL4, ADGN-100RI/PGL4, ADGN-100hydro1/PGL4, ADGN-100hydro6/PGL4, ADGN-100 stearyl/PGL4 or ADGN-100/PGL4 complexes containing 10% or 20% of ADGN-100PEG (2 animals per group). As control, mice from group 3 (2 animals per group) received IV injection of 25 μl of naked PGL4 plasmid (2.5 μg).
as §4

mice or rat models = experiment: Summary of cargo delivery to targeted organ (Table 1); format: in vivo
Text: Table 1 lists a summary of cell-penetrating peptides that have been proven successful in delivering various cargo molecules to on or more targeted organ (e.g., by intravenous (IV), intramuscular (IM), or subcutaneous (SQ) administration, or intratraccheal instillation or nebulization (NB)) in mice or rat models.

mice [4] = experiment: In vivo delivery of Luciferase mRNA, intramuscular administration, bioluminescence imaging; settings: IM, Luc mRNA
Description: FIGS. 5A-5B show the potency of ADGN-peptide variants for in vivo delivery of Luciferase mRNA via intramuscular administration in mice. ADGN-peptide/luc mRNA particles containing 2.5 μg mRNA were formed in sterile water, and then diluted in 5% sucrose. Mice received […] injection o 25 μl ADGN-peptide/mRNA complexes. mRNA LUC expression was monitored by bioluminescence imaging after 12 h, 24 h and 48h (A). FIG. 5B show bioluminescence imaging at 24 hr in control and treated groups.
as §1, §2

[5] = cargoes and route (IV, IM, SQ, NB) per peptide as listed in Table 1

Row | Substance | mRNA / luciferase expression and tissues (mice [1]) | luciferase expression and tissues (mice [2]) | luciferase expression (mice [3]) | increase of luciferase expression / efficiency relative to ADGN-100 (mice [2]) [fold] | Targeted Organ (mice or rat models; [5]) | increase of luciferase expression / efficiency relative to ADGN-106 (mice [1]; all / different tissues) [fold] | increase of luciferase expression in the muscle / efficiency relative to ADGN-106 (mice [4]) [fold] | luciferase expression (mice [4]) | increase of luciferase expression in the muscle / efficiency relative to ADGN-100 (mice [3]) [fold] | Targeted Organ (mice or rat models; cargoes and route (IV, IM, SQ, NB) per peptide as listed in Table 1, listed as ADGN-100a) | efficiency relative to ADGN-100 (mice [1]) [folds] | efficiency relative to ADGN-100 stearyl (mice [1]) [folds]
1 | Ac-GYVS-(G)4-KWRSALWRWRLWRVRSWSR-NH2 (Ac-GYVSGGGGKWRSALWRWRLWRVRSWSR-NH2) [ADGN-100 hydro-2] | negligible luciferase expression | negligible luciferase expression | no significant expression |  |  |  |  |  |  |  |  | 
2 | Ac-GYVS-Aun-KWRSALWRWRLWRVRSWSR-NH2 (Ac-GYVS[Aun]KWRSALWRWRLWRVRSWSR-NH2; SMILES CC(=O)NCC(=O)N[C@@H](Cc1ccc(O)cc1)C(=O)N[C@H](C(=O)N[C@@H](CO)C(=O)NCCCCCCCCCCC(=O)N[C@@H](CCCCN)C(=O)N[C@@H](Cc1c[nH]c2ccccc12)C(=O)N[C@@H](CCCNC(=N)N)C(=O)N[C@@H](CO)C(=O)N[C@@H](C)C(=O)N[C@@H](CC(C)C)C(=O)N[C@@H](Cc1c[nH]c2ccccc12)C(=O)N[C@@H](CCCNC(=N)N)C(=O)N[C@@H](Cc1c[nH]c2ccccc12)C(=O)N[C@@H](CCCNC(=N)N)C(=O)N[C@@H](CC(C)C)C(=O)N[C@@H](Cc1c[nH]c2ccccc12)C(=O)N[C@@H](CCCNC(=N)N)C(=O)N[C@H](C(=O)N[C@@H](CCCNC(=N)N)C(=O)N[C@@H](CO)C(=O)N[C@@H](Cc1c[nH]c2ccccc12)C(=O)N[C@@H](CO)C(=O)N[C@@H](CCCNC(=N)N)C(N)=O)C(C)C)C(C)C) [ADGN-100 hydro-6] |  | mainly observed in the liver and at lower level in the lung and the kidney | mediated Luciferase expression following IM administration | 3.4 |  |  |  |  |  |  |  | 
3 | Stearyl-βA-KWRSALWRWRLWRVRSWSR-NH2 (Stearyl-[βAla]KWRSALWRWRLWRVRSWSR-NH2; not fully specified; printed as Stearyl-βA-KWRSALWRWRLWRVRSWSR-NH2) [ADGN-100 Stearyl] | mainly observed in the liver and at lower level in the lung and the kidney | mainly observed in the liver and at lower level in the lung and the kidney |  | 2.7 | Lung/Liver/; also recorded: Kidney/Pancreas |  |  |  |  |  |  | 
4 | akwllrwlsrwlrwlarwlr ([dA][dK][dW][dL][dL][dR][dW][dL][dS][dR][dW][dL][dR][dW][dL][dA][dR][dW][dL][dR]; also: retro-inverso) [ADGN-106-RI] | mainly observed in the liver and at lower level in the lung and the kidney |  |  |  | Liver/Lung | 2 | 6 | mediated Luciferase expression following intramuscular (IM) administration |  |  |  | 
5 | rswsrvrwlrwrwgasrwk ([dR][dS][dW][dS][dR][dV][dR][dW][dL][dR][dW][dR][dW]G[dA][dS][dR][dW][dK]; also: retro-inverso) [ADGN-100-RI] |  | mainly observed in the liver and at lower level in the lung and the kidney | mediated Luciferase expression following IM administration | 4 | Liver/Lung/; also recorded: Kidney/Spleen |  |  |  | 6 |  |  | 
6 | βAKWRSAGWRWRLW RVRSWSR (AKWRSAGWRWRLWRVRSWSR; N-terminal beta-alanine; VARIANT 1 beta-A) [ADGN-100] | mainly observed in the liver and at lower level in the lung and the kidney | mainly observed in the liver and at lower level in the lung and the kidney | mediated Luciferase expression following IM administration |  |  |  |  | no significant expression |  | Lung/Liver/; also recorded: Kidney/Pancreas |  | 
7 | βALWRALWRLWRSLWRLLWKA ([βAla]LWRALWRLWRSLWRLLWKA) [ADGN-106] | mainly observed in the liver and at lower level in the lung and the kidney | no or minimal expression | no significant expression |  | Liver/Lung |  |  | mediated Luciferase expression following intramuscular (IM) administration |  |  | 4 | 2
